Results from publication PMC3621174, “A cell based high-throughput screening approach for the discovery of new inhibitors of respiratory syncytial virus” (Virology Journal, 2013).
Where two headings read alike, the source gives them in different places.

Columns and labels:
[1] = tested on: RSV strain Long; assay: Plaque reduction assay in HEp-2 cells; assay type: cell-based, Human respiratory syncytial virus; settings: 25 μM test compound, MOI 0.1, HEp-2
Method: These compounds were evaluated for their ability to reduce the amount of infectious virus produced in cell culture. HEp-2 cells were infected with hRSV in the presence of 25 μM test compound. Media supernatants were removed and 10-fold serial-diluted onto a confluent field of uninfected, untreated HEp-2 cells, bound, washed, and overlaid with agarose. After six days, plaques were fixed, stained, and counted to determine the amount of infectious virus in the original, drugged supernatants (Figure 8).
Figure 8 Plaque reduction assay in HEp-2 cells. RSV strain Long was assayed for its sensitivity to five compounds. Supernatants were harvested from test (25 μM) or control compound (35 μM) treated RSV-infected HEp-2 cells at a multiplicity of infection (MOI) of 0.1. Serial dilutions of the supernatants were added to monolayers of HEp-2 cells in 24-well plates. Cells were fixed after 6 days and stained with neutral red. Plaque reduction assays were performed in triplicate per compound. CC, uninfected cell control; VC, untreated virus-infected control. The concentration of DMSO in each assay well, including all control wells was 0.5%.
Compounds or carrier control (DMSO) were diluted in Complete DMEM/F12 and 2 mL per well was dispensed to 6-well assay plates (final plate well concentration was 25 μM, ribavirin; 35 μM and final DMSO concentration 0.5%). […]

[2] = tested on: hRSV (strain Long); assay: 384-well CPE inhibition assay, hRSV-infected HEp-2 cells, Cell Titer Glo endpoint; assay type: cell-based; settings: human respiratory syncytial virus, 144 h; HEp-2, virus MOI = 0.5, 8 point dose response 50-0.39 uM, 6 days, triplicate; read-out: EC50 (efficacy)
Method: (§1) Figure 3 Dose response of ribavirin. HEp-2 cells were plated in 384-well black tissue culture plates at 2,000 cells per well. Ribavirin or carrier control (DMSO) were diluted to 6x in Complete DMEM/F12 and serially diluted 1:2 resulting in an 8 point dose response dilution series. (final plate well concentration ranging from 50 uM to 0.39 uM and a final DMSO concentration of 0.5%). For dose response screening, cells were infected with a 1:500 dilution of virus (viral MOI = 0.5). The assay plates were incubated for six days at 37°C, 5% CO2 and 90% relative humidity and the inhibitory effects of the drug were assessed using Cell Titer Glo. […]
(§2) Following the six day incubation period, the assay plates were equilibrated to room temperature for 30 min. […] At the end of the incubation, luminescence was measured using a multi-label reader (Envision, PerkinElmer, Wellesley, MA) with an integration time of 0.1 s.
(§3) HTS data were analyzed using ActivityBase software (IDBS, Inc., Guildford, UK). Antiviral activity is described as percent CPE inhibition = 100*((luminescence compound well minus median luminescence virus control)/ (median luminescence cell control minus median luminescence virus control)). Percent viability = 100 * luminescence compound well/median luminescence cell control. […] Two dose-response curves were calculated for each substance. […] The selective index (SI) was calculated as SI = CC50/EC50. […]

[3] = Cytotoxicity dose response in HEp-2 cells (Cell Titer Glo); assay type: cell-based; settings: human, HEp-2, 8 point dose response, duplicate
Method: as §1, §2, §3

[4] = tested on: hRSV (strain Long); set-up: method as in PMID 14638398; settings: previously reported value; cited from earlier work

Compound | reduction in virus titer (pfu/mL) from control [1] [log] | EC50 [2] [µM] | CC50 at 6 days [3] [µM] | EC50 [4] [µM]
COc1ccccc1CNC(=O)C1CCN(S(=O)(=O)c2cccc3nonc23)CC1 [compound 93616803] | 4 | – | – | –
NC(=O)c1ncn([C@@H]2O[C@H](CO)[C@@H](O)[C@H]2O)n1 [ribavirin] | – | ~40 | ~75 | 41
O=C(O)C1CC=CCC1C(=O)Nc1ccc(S(=O)(=O)N2CCCc3ccccc32)cc1 (centres unmarked) [SID 93616804] | 6.5 | – | – | –
